Legend:
Test in all cases: relative viability (nuclei count vs DMSO), 5 days (fraction); higher = more cells survive
NCI-H322M = test system: NCI-H322M
Summary of the method: (§1)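 Lung cancer cell lines, seeded in 1536-well plates, were treated the following day by pin tool with a single drug or with five library-drug doses (not always all listed) in √10 steps on top of a fixed anchor-drug dose. Cells were fixed and nuclei stained in one step after 5 days, and nuclei were counted. Relative viability is the nuclei count for treated wells divided by that for vehicle wells, reported as medians of duplicate plates.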

ChaGo-K-1 = test system: ChaGo-K-1
Summary of the method: as §1

NCI-H838 = test system: NCI-H838
Summary of the method: as §1

NCI-H2342 = test system: NCI-H2342
Summary of the method: as §1

NCI-H358 = test system: NCI-H358
Summary of the method: as §1

LCLC-97TM1 = test system: LCLC-97TM1
Summary of the method: as §1

NCI-H1651 = test system: NCI-H1651
Summary of the method: as §1

LC-2-ad = test system: LC-2-ad
Summary of the method: as §1

PC-3 [JPC-3] = test system: PC-3 [JPC-3]
Summary of the method: as §1

SK-MES-1 = test system: SK-MES-1
Summary of the method: as §1

HCC-15 = test system: HCC-15
Summary of the method: as §1

NCI-H2087 = test system: NCI-H2087
Summary of the method: as §1

NCI-H1944 = test system: NCI-H1944
Summary of the method: as §1

NCI-H1666 = test system: NCI-H1666
Summary of the method: as §1

LXF-289 = test system: LXF-289
Summary of the method: as §1

BEN = test system: BEN
Summary of the method: as §1

H3255 = test system: H3255
Summary of the method: as §1

LU99A = test system: LU99A
Summary of the method: as §1

NCI-H661 = test system: NCI-H661
Summary of the method: as §1

NCI-H650 = test system: NCI-H650
Summary of the method: as §1

UMC-11 = test system: UMC-11
Summary of the method: as §1

LK-2 = test system: LK-2
Summary of the method: as §1

NCI-H596 = test system: NCI-H596
Summary of the method: as §1

Structure (SMILES): C[C@@H]1CN(CC(=O)Nc2ccc3c(c2)Cc2cccc(-c4cc(=O)cc(N5CCOCC5)o4)c2S3)C[C@H](C)O1 + CCNC(=O)c1noc(-c2cc(C(C)C)c(O)cc2O)c1-c1ccc(CN2CCOCC2)cc1 [Luminespib] (partner 0.01 µM)
- relative viability (NCI-H322M; first compound 0.04 µM): 0.767
- relative viability (NCI-H322M; first compound 0.1265 µM): 0.765
- relative viability (NCI-H322M; first compound 0.4 µM): 0.839
- relative viability (NCI-H322M; first compound 4 µM): 0.841
- relative viability (ChaGo-K-1; first compound 0.04 µM): 0.598
- relative viability (ChaGo-K-1; first compound 0.1265 µM): 0.596
- relative viability (ChaGo-K-1; first compound 0.4 µM): 0.512
- relative viability (ChaGo-K-1; first compound 4 µM): 0.394
- relative viability (NCI-H838; first compound 0.04 µM): 0.383
- relative viability (NCI-H838; first compound 0.1265 µM): 0.278
- relative viability (NCI-H838; first compound 0.4 µM): 0.286
- relative viability (NCI-H838; first compound 4 µM): 0.258
- relative viability (NCI-H2342; first compound 0.04 µM): 0.706
- relative viability (NCI-H2342; first compound 0.1265 µM): 0.641
- relative viability (NCI-H2342; first compound 0.4 µM): 0.722
- relative viability (NCI-H2342; first compound 4 µM): 0.662
- relative viability (NCI-H358; first compound 0.04 µM): 0.429
- relative viability (NCI-H358; first compound 0.1265 µM): 0.308
- relative viability (NCI-H358; first compound 0.4 µM): 0.399
- relative viability (NCI-H358; first compound 4 µM): 0.233
- relative viability (LCLC-97TM1; first compound 0.04 µM): 0.657
- relative viability (LCLC-97TM1; first compound 0.1265 µM): 0.828
- relative viability (LCLC-97TM1; first compound 0.4 µM): 0.749
- relative viability (LCLC-97TM1; first compound 4 µM): 0.813
- relative viability (NCI-H1651; first compound 0.04 µM): 0.891
- relative viability (NCI-H1651; first compound 0.1265 µM): 0.719
- relative viability (NCI-H1651; first compound 0.4 µM): 0.885
- relative viability (NCI-H1651; first compound 4 µM): 0.634
- relative viability (LC-2-ad; first compound 0.04 µM): 0.986
- relative viability (LC-2-ad; first compound 0.1265 µM): 0.912
- relative viability (LC-2-ad; first compound 0.4 µM): 0.979
- relative viability (LC-2-ad; first compound 4 µM): 0.953
- relative viability (PC-3 [JPC-3]; first compound 0.04 µM): 0.744
- relative viability (PC-3 [JPC-3]; first compound 0.1265 µM): 0.684
- relative viability (PC-3 [JPC-3]; first compound 0.4 µM): 0.728
- relative viability (PC-3 [JPC-3]; first compound 4 µM): 0.605
- relative viability (SK-MES-1; first compound 0.04 µM): 0.659
- relative viability (SK-MES-1; first compound 0.1265 µM): 0.764
- relative viability (SK-MES-1; first compound 0.4 µM): 0.664
- relative viability (SK-MES-1; first compound 4 µM): 0.475
- relative viability (HCC-15; first compound 0.04 µM): 0.358
- relative viability (HCC-15; first compound 0.1265 µM): 0.282
- relative viability (HCC-15; first compound 0.4 µM): 0.284
- relative viability (HCC-15; first compound 4 µM): 0.27
- relative viability (NCI-H2087; first compound 0.04 µM): 0.217
- relative viability (NCI-H2087; first compound 0.1265 µM): 0.188
- relative viability (NCI-H2087; first compound 0.4 µM): 0.207
- relative viability (NCI-H2087; first compound 4 µM): 0.168
- relative viability (NCI-H1944; first compound 0.04 µM): 0.676
- relative viability (NCI-H1944; first compound 0.1265 µM): 0.729
- relative viability (NCI-H1944; first compound 0.4 µM): 0.938
- relative viability (NCI-H1944; first compound 4 µM): 0.824
- relative viability (NCI-H1666; first compound 0.04 µM): 1
- relative viability (NCI-H1666; first compound 0.1265 µM): 1.09
- relative viability (NCI-H1666; first compound 0.4 µM): 1.12
- relative viability (NCI-H1666; first compound 4 µM): 0.905
- relative viability (LXF-289; first compound 0.04 µM): 0.657
- relative viability (LXF-289; first compound 0.1265 µM): 0.645
- relative viability (LXF-289; first compound 0.4 µM): 0.714
- relative viability (LXF-289; first compound 4 µM): 0.73
- relative viability (BEN; first compound 0.04 µM): 0.264
- relative viability (BEN; first compound 0.1265 µM): 0.252
- relative viability (BEN; first compound 0.4 µM): 0.463
- relative viability (BEN; first compound 4 µM): 0.322
- relative viability (H3255; first compound 0.04 µM): 0.952
- relative viability (H3255; first compound 0.1265 µM): 0.767
- relative viability (H3255; first compound 0.4 µM): 0.912
- relative viability (H3255; first compound 4 µM): 0.881
- relative viability (LU99A; first compound 0.04 µM): 0.304
- relative viability (LU99A; first compound 0.1265 µM): 0.192
- relative viability (LU99A; first compound 0.4 µM): 0.26
- relative viability (LU99A; first compound 4 µM): 0.231
- relative viability (NCI-H661; first compound 0.04 µM): 0.964
- relative viability (NCI-H661; first compound 0.1265 µM): 0.938
- relative viability (NCI-H661; first compound 0.4 µM): 0.97
- relative viability (NCI-H661; first compound 4 µM): 0.813
- relative viability (NCI-H650; first compound 0.04 µM): 0.836
- relative viability (NCI-H650; first compound 0.1265 µM): 0.827
- relative viability (NCI-H650; first compound 0.4 µM): 0.831
- relative viability (NCI-H650; first compound 4 µM): 0.738
- relative viability (UMC-11; first compound 0.04 µM): 1.1
- relative viability (UMC-11; first compound 0.1265 µM): 0.903
- relative viability (UMC-11; first compound 0.4 µM): 1.03
- relative viability (UMC-11; first compound 4 µM): 0.675
- relative viability (LK-2; first compound 0.1265 µM): 0.202
- relative viability (LK-2; first compound 0.4 µM): 0.24
- relative viability (LK-2; first compound 4 µM): 0.188
- relative viability (NCI-H596; first compound 0.04 µM): 1.16
- relative viability (NCI-H596; first compound 0.1265 µM): 1.18
- relative viability (NCI-H596; first compound 0.4 µM): 0.921
- relative viability (NCI-H596; first compound 4 µM): 0.964

Source: the supplement of paper PMC10307832
